Read-outs that look alike come from different tables or passages of the source.
Biological target: interaction between GST-MAGEA11 MHD and FAM-PCF11_4 peptide (MAGE-A11:PCF11) (Homo sapiens (Human), UniProt P43364)
Assay: TR-FRET dose response competition assay for disruption of MAGE-A11:PCF11 binding
Summary of the method: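 Competition TR-FRET at room temperature in 50 mM Tris pH 7.5, 20 mM MgCl2, 0.1 mg/ml BSA, 1 mM DTT: final 5 nM GST-MAGEA11 MHD, 5 nM Tb-anti-GST, 200 nM FAM-PCF11_4, 90 min. Ratio 520/490 nm converted to % inhibition; IC50 from sigmoidal fit.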

[1] = Dose response TR-FRET screening of nine scaffold groups against MAGE-A11:PCF11, read-out: consensus IC50
[2] = Table 8, representative compounds, read-out: TR-FRET IC50
[3] = Table 5, dose response TR-FRET screening of 59 quinoline compounds against MAGE-A11:PCF11, read-out: TR-FRET IC50

Chain of interaction between GST-MAGEA11 MHD and FAM-PCF11_4 peptide (MAGE-A11:PCF11) (P43364 218-429): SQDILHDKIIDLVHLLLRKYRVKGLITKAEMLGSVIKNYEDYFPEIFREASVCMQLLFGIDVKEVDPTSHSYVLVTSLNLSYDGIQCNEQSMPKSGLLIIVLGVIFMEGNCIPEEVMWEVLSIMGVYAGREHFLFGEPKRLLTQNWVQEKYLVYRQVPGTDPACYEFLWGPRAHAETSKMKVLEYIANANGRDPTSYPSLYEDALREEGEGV

| SMILES | IC50 [1] | IC50 [2] | also measured |
| --- | --- | --- | --- |
| Cc1nc2cc(-c3ccccc3)sc2c(=O)n1N [SJ000296471-1] | 69.9 µM | – | – |
| COc1ccc(-c2cc3nc[nH]c(=O)c3s2)cc1 [SJ000296726-1] | 69.9 µM | – | – |
| CC(=O)N(C1=C(Cl)C(=O)c2ccccc2C1=O)c1ccc(Cl)cc1 [SJ000296883-2] | 69.9 µM | – | – |
| O=C1C(Cl)=C(Nc2ccc(Cl)cc2)C(=O)c2ccccc21 [SJ000297073-1] | 69.9 µM | – | – |
| CCn1c2ccccc2c2cc(CN3CCN(C(=O)c4ccc(OC)c(OC)c4)CC3)ccc21 [SJ000298589-1] | 69.9 µM | – | – |
| COC(=O)c1ccc(NC2=C(Cl)C(=O)c3ccccc3C2=O)cc1 [SJ000299646-1] | 69.9 µM | – | – |
| CC1CCCC(C)C1NC1=C(Cl)C(=O)c2ccccc2C1=O (centres unmarked) [SJ000299694-1] | 69.9 µM | – | – |
| CC(=O)N(C1=C(Cl)C(=O)c2ccccc2C1=O)c1ccc(Br)cc1 [SJ000299699-2] | 69.9 µM | – | – |
| O=C1C(Cl)=C(Nc2ccc(Nc3ccccc3)cc2)C(=O)c2ccccc21 [SJ000299708-1] | 69.9 µM | – | – |
| NC1=C(Nc2cccc3ccccc23)C(=O)c2ccccc2C1=O [SJ000300361-1] | 69.9 µM | – | – |
| Cn1c2ccccc2c2cc(C(=O)N3CCc4nncn4CC3)ccc21 [SJ000307416-1] | 69.9 µM | – | – |
| CCn1c2ccccc2c2cc(CN3CCc4nnc(CNS(=O)(=O)C(C)C)n4CC3)ccc21 [SJ000307753-1] | 69.9 µM | – | – |
| CCn1c2ccccc2c2cc(CN3CCc4nnc(C(C)NC(=O)CCOC)n4CC3)ccc21 (centres unmarked) [SJ000307915-1] | 69.9 µM | – | – |
| CCn1c2ccccc2c2cc(CN3CCc4nnc(CNC(=O)c5ccccc5)n4CC3)ccc21 [SJ000307948-1] | 69.9 µM | – | – |
| Cn1c2ccccc2c2cc(C(=O)NCC3CCC4(CCN(Cc5ccccn5)CC4)O3)ccc21 (centres unmarked) [SJ000308489-1] | 69.9 µM | – | – |
| COc1ccccc1CNCCCNc1ccnc2cc(Cl)ccc12 [SJ000311185-1] | 69.9 µM | – | – |
| COc1ccccc1CNCCCNc1ccnc2cc(Cl)ccc12 [SJ000311185] | – | 69.9 µM | – |
| Oc1ccc(Br)cc1CNCCCNc1ccnc2cc(Cl)ccc12 [SJ000311186-1] | 69.9 µM | – | – |
| Oc1ccc(Br)cc1CNCCCNc1ccnc2cc(Cl)ccc12 [SJ000311186] | – | 69.9 µM | – |
| Oc1ccccc1CNCCCNc1ccnc2cc(Cl)ccc12 [SJ000311187-1] | 69.9 µM | – | – |
| Oc1ccccc1CNCCCNc1ccnc2cc(Cl)ccc12 [SJ000311187] | – | 69.9 µM | – |

| SMILES | IC50 [1] | IC50 [2] | also measured |
| --- | --- | --- | --- |
| COc1ccc(O)c(C(C)NCCCNc2ccnc3cc(Cl)ccc23)c1 (centres unmarked) [SJ000311188-1] | 69.9 µM | – | – |
| COc1ccc(O)c(C(C)NCCCNC2C=CN=C3C=C(Cl)C=CC32)c1 (centres unmarked) [SJ000311188] | – | 69.9 µM | – |
| O=[N+]([O-])c1ccc(CNCCCNc2ccnc3cc(Cl)ccc23)cc1O [SJ000311191-1] | 69.9 µM | – | – |
| O=[N+]([O-])c1ccc(CNCCCNc2ccnc3cc(Cl)ccc23)cc1O [SJ000311191] | – | 69.9 µM | – |
| COc1ccc(CNCCCNc2ccnc3cc(Cl)ccc23)cc1O [SJ000311192-1] | 69.9 µM | – | – |
| COc1ccc(CNCCCNc2ccnc3cc(Cl)ccc23)cc1O [SJ000311192] | – | 69.9 µM | – |
| CC(C)(C)c1ccc(O)c(CNCCCNc2ccnc3cc(Cl)ccc23)c1 [SJ000311193-1] | 30.4 µM | – | – |
| CC(C)(C)c1ccc(O)c(CNCCCNc2ccnc3cc(Cl)ccc23)c1 [SJ000311193] | – | 30.4 µM | – |
| Oc1ccc(Br)c(CNCCCNc2ccnc3cc(Cl)ccc23)c1 [SJ000311194-1] | 69.9 µM | – | – |
| Oc1ccc(Br)c(CNCCCNc2ccnc3cc(Cl)ccc23)c1 [SJ000311194] | – | 69.9 µM | – |
| CCCN(CCCCNc1ccnc2cc(Cl)ccc12)Cc1cc(Br)ccc1O [SJ000311196-1] | 69.9 µM | – | – |
| COc1cccc(CNCCCNc2ccnc3cc(Oc4ccccc4)ccc23)c1O [SJ000311207-1] | 69.9 µM | – | – |
| COc1cccc(CNCCCNc2ccnc3cc(Oc4ccccc4)ccc23)c1O [SJ000311207] | – | 69.9 µM | – |
| c1ccc(Oc2ccc3c(NCCCNCc4cccc5c4OCO5)ccnc3c2)cc1 [SJ000311208-1] | 30.1 µM | – | – |
| c1ccc(Oc2ccc3c(NCCCNCc4cccc5c4OCO5)ccnc3c2)cc1 [SJ000311208] | – | 30.1 µM | – |
| COc1ccc(F)cc1CNCCCNc1ccnc2cc(Oc3ccccc3)ccc12 [SJ000311209-1] | 29 µM | – | – |
| COc1ccc(F)cc1CNCCCNc1ccnc2cc(Oc3ccccc3)ccc12 [SJ000311209] | – | 29 µM | – |
| COc1ccccc1Oc1ccc2c(NCCCNCc3cccc(OC)c3O)ccnc2c1 [SJ000311211-1] | 69.9 µM | – | – |
| COc1ccccc1Oc1ccc2c(NCCCNCc3cccc(OC)c3O)ccnc2c1 [SJ000311211] | – | 69.9 µM | – |
| COc1ccccc1Oc1ccc2c(NCCCNCc3cccc4c3OCO4)ccnc2c1 [SJ000311212-1] | 69.9 µM | – | – |
| COc1ccccc1Oc1ccc2c(NCCCNCc3cccc4c3OCO4)ccnc2c1 [SJ000311212] | – | 69.9 µM | – |

| SMILES | IC50 [1] | IC50 [2] | also measured |
| --- | --- | --- | --- |
| COc1ccc(F)cc1CNCCCNc1ccnc2cc(Oc3ccccc3OC)ccc12 [SJ000311213-1] | 69.9 µM | – | – |
| COc1ccc(F)cc1CNCCCNc1ccnc2cc(Oc3ccccc3OC)ccc12 [SJ000311213] | – | 69.9 µM | – |
| COc1cccc(Oc2ccc3c(NCCCNCc4cccc(OC)c4O)ccnc3c2)c1 [SJ000311215-1] | 69.9 µM | – | – |
| COc1cccc(Oc2ccc3c(NCCCNCc4cccc(OC)c4O)ccnc3c2)c1 [SJ000311215] | – | 69.9 µM | – |
| COc1cccc(Oc2ccc3c(NCCCNCc4cccc5c4OCO5)ccnc3c2)c1 [SJ000311216-1] | 36.9 µM | – | – |
| COc1cccc(Oc2ccc3c(NCCCNCc4cccc5c4OCO5)ccnc3c2)c1 [SJ000311216] | – | 36.9 µM | – |
| COc1cccc(Oc2ccc3c(NCCCNCc4cc(F)ccc4OC)ccnc3c2)c1 [SJ000311217-1] | 36.8 µM | – | – |
| COc1cccc(Oc2ccc3c(NCCCNCc4cc(F)ccc4OC)ccnc3c2)c1 [SJ000311217] | – | 36.8 µM | – |
| COc1ccc(Oc2ccc3c(NCCCNCc4ccco4)ccnc3c2)cc1 [SJ000311218-1] | – | – | IC50 [3]: > 70 µM |
| COc1ccc(Oc2ccc3c(NCCCNCc4cccc(OC)c4O)ccnc3c2)cc1 [SJ000311219-1] | 29 µM | – | – |
| COc1ccc(Oc2ccc3c(NCCCNCc4cccc(OC)c4O)ccnc3c2)cc1 [SJ000311219] | – | 29.1 µM | – |
| COc1ccc(Oc2ccc3c(NCCCNCc4cccc5c4OCO5)ccnc3c2)cc1 [SJ000311220-1] | 43.7 µM | – | – |
| COc1ccc(Oc2ccc3c(NCCCNCc4cccc5c4OCO5)ccnc3c2)cc1 [SJ000311220] | – | 43.7 µM | – |
| COc1ccc(Oc2ccc3c(NCCCNCc4cc(F)ccc4OC)ccnc3c2)cc1 [SJ000311221-1] | 46.4 µM | – | – |
| COc1ccc(Oc2ccc3c(NCCCNCc4cc(F)ccc4OC)ccnc3c2)cc1 [SJ000311221] | – | 46.5 µM | – |
| COc1cccc(CNCCCNc2ccnc3cc(Oc4ccc(F)cc4)ccc23)c1O [SJ000311223-1] | 61.9 µM | – | – |
| COc1cccc(CNCCCNc2ccnc3cc(Oc4ccc(F)cc4)ccc23)c1O [SJ000311223] | – | 61.9 µM | – |
| Fc1ccc(Oc2ccc3c(NCCCNCc4cccc5c4OCO5)ccnc3c2)cc1 [SJ000311224-1] | 59.6 µM | – | – |
| Fc1ccc(Oc2ccc3c(NCCCNCc4cccc5c4OCO5)ccnc3c2)cc1 [SJ000311224] | – | 59.6 µM | – |
| COc1ccc(F)cc1CNCCCNc1ccnc2cc(Oc3ccc(F)cc3)ccc12 [SJ000311225-1] | 69.9 µM | – | – |
| COc1ccc(F)cc1CNCCCNc1ccnc2cc(Oc3ccc(F)cc3)ccc12 [SJ000311225] | – | 69.9 µM | – |

| SMILES | IC50 [1] | IC50 [2] | also measured |
| --- | --- | --- | --- |
| Clc1ccc(Oc2ccc3c(NCCCNCc4ccco4)ccnc3c2)cc1 [SJ000311226-1] | – | – | IC50 [3]: > 70 µM |
| COc1cccc(CNCCCNc2ccnc3cc(Oc4ccc(Cl)cc4)ccc23)c1O [SJ000311227-1] | 20.7 µM | – | – |
| COc1cccc(CNCCCNc2ccnc3cc(Oc4ccc(Cl)cc4)ccc23)c1O [SJ000311227] | – | 20.7 µM | – |
| Clc1ccc(Oc2ccc3c(NCCCNCc4cccc5c4OCO5)ccnc3c2)cc1 [SJ000311228-1] | 17.7 µM | – | – |
| Clc1ccc(Oc2ccc3c(NCCCNCc4cccc5c4OCO5)ccnc3c2)cc1 [SJ000311228] | – | 17.7 µM | – |
| COc1ccc(F)cc1CNCCCNc1ccnc2cc(Oc3ccc(Cl)cc3)ccc12 [SJ000311229-1] | 19.7 µM | – | – |
| COc1ccc(F)cc1CNCCCNc1ccnc2cc(Oc3ccc(Cl)cc3)ccc12 [SJ000311229] | – | 19.7 µM | – |
| CN(C)c1cccc(Oc2ccc3c(NCCCNCc4ccco4)ccnc3c2)c1 [SJ000311230-1] | – | – | IC50 [3]: > 70 µM |
| COc1cccc(CNCCCNc2ccnc3cc(Oc4cccc(N(C)C)c4)ccc23)c1O [SJ000311231-1] | 69.9 µM | – | – |
| COc1cccc(CNCCCNc2ccnc3cc(Oc4cccc(N(C)C)c4)ccc23)c1O [SJ000311231] | – | 69.9 µM | – |
| CN(C)c1cccc(Oc2ccc3c(NCCCNCc4cccc5c4OCO5)ccnc3c2)c1 [SJ000311232-1] | 69.9 µM | – | – |
| CN(C)c1cccc(Oc2ccc3c(NCCCNCc4cccc5c4OCO5)ccnc3c2)c1 [SJ000311232] | – | 69.9 µM | – |
| COc1ccc(F)cc1CNCCCNc1ccnc2cc(Oc3cccc(N(C)C)c3)ccc12 [SJ000311233-1] | 5.63 µM | – | – |
| COc1ccc(F)cc1CNCCCNc1ccnc2cc(Oc3cccc(N(C)C)c3)ccc12 [SJ000311233] | – | 5.63 µM | – |
| CC(C)(C)c1ccc(Oc2ccc3c(NCCCNCc4ccco4)ccnc3c2)cc1 [SJ000311234-1] | – | – | IC50 [3]: 32.1 µM |
| COc1cccc(CNCCCNc2ccnc3cc(Oc4ccc(C(C)(C)C)cc4)ccc23)c1O [SJ000311235-1] | 7.65 µM | – | – |
| COc1cccc(CNCCCNc2ccnc3cc(Oc4ccc(C(C)(C)C)cc4)ccc23)c1O [SJ000311235] | – | 7.65 µM | – |
| CC(C)(C)c1ccc(Oc2ccc3c(NCCCNCc4cccc5c4OCO5)ccnc3c2)cc1 [SJ000311236-1] | 8.67 µM | – | – |
| CC(C)(C)c1ccc(Oc2ccc3c(NCCCNCc4cccc5c4OCO5)ccnc3c2)cc1 [SJ000311236] | – | 8.67 µM | – |
| COc1ccc(F)cc1CNCCCNc1ccnc2cc(Oc3ccc(C(C)(C)C)cc3)ccc12 [SJ000311237-1] | 6.29 µM | – | – |

Reference: patent publication US20240246941A1, “SUBSTITUTED 4-(3-AMINOPROP-1-YL)AMINOQUINOLINE ANALOGS AS MODULATORS OF MELANOMA-ASSOCIATED ANTIGEN 11 UBIQUITIN LIGASE” (ST. JUDE CHILDREN'S RESEARCH HOSPITAL, INC., priority 2020, published 2024)
